The values that follow come from US9351973B2, “Pyrazolopyridyl compounds as aldosterone synthase inhibitors” (Merck Sharp & Dohme Corp., priority 2011, dated 2016).

One test addresses human CYP11B1 (Homo sapiens (Human), UniProt P15538). Nature of the test: V79-Human-CYP11B1 cell assay (cortisol formation from 11-deoxycortisol, HTRF). In kind it is cell-based. Conditions: for IC50: V79 cells stably expressing human CYP11B1, 250 nM 11-deoxycortisol, 3 hours. As for the experimental part: (§1) Methods for V79-Human-CYP11B2 and V79-Human-CYP11B1 Assays: V79 cell lines stably expressing the either the human CYP11B2 or the human CYP11B1 enzyme were generated using a standard transfection protocol. V79 cells were transfected with plasmids pTriEx3-Hygro-hCyp11B2 or pTriEx3-Hygro-hCyp11B1 using Lipofectamine2000 reagent. V79 cells that stably express the human CYP11B2 or human CYP11B1 enzyme were selected for and maintained in DMEM supplemented with 10% FBS and 400 μg/mL hygromycin for ˜2 weeks. Single cell clones were generated by infinite dilution in DMEM supplemented with 10% FBS and 400 μg/mL hygromycin until single colonies were obtained. Clones V79-hCYP11B2-CLE9 and V79-hCYP11B1-8CLC7, were determined to produce the most aldosterone and cortisol, respectively, and were selected for inhibitor screening. For testing of inhibitors, cells were harvested at 80% confluency with 0.5% Trypsan-EDTA, washed once in PBS, and reconstituted in DMEM+0.1% BSA media at a cell concentration of 600,000 cells/mL for the CYP11B2 assay and 280,000 cells/mL for the CYP11B1 assay. 25 μL of cells were added to a 384 well tissue culture treated plate and mixed with 0.3 μL of inhibitor or DMSO (1% final DMSO concentration) for 1 hour at 37° C., 5% CO2. After pre-incubation with inhibitor, the reaction was initiated by adding 5 μL of substrate (final concentration of 125 nM 11-deoxycorticosterone for the CYP11B2 assay or 250 nM 11-deoxycortisol for the CYP11B1 assay). The reaction was carried out for 3 hours at 37° C., 5% CO2 and was stopped by harvesting the supernatants. The amount of product in the supernatant (aldosterone for CYP11B2 assay and cortisol for the CYP11B1 assay) was measured using HTRF-based assay kit (Aldosterone HTRF-CisBio#64ALDPEB, Cortisol HTRF-CisBio #63IDC002-CORT). IC50s for the inhibitor were determined by plotting the amount of product formed against the concentration of inhibitor using sigmoidal dose-response curve (variable slope) fit in GraphPad.

In a further test the target is human CYP11B2 (Homo sapiens (Human), UniProt P19099). Nature of the test: V79-Human-CYP11B2 cell assay (aldosterone formation from 11-deoxycorticosterone, HTRF). In kind it is cell-based. The following applies: for IC50: V79 cells stably expressing human CYP11B2, 125 nM 11-deoxycorticosterone, 3 hours. As for the experimental part: as §1
On the technique in general: In TR-FRET formats the signal depends on donor and acceptor labels being close together.

human CYP11B2, sequence (P19099 25-503): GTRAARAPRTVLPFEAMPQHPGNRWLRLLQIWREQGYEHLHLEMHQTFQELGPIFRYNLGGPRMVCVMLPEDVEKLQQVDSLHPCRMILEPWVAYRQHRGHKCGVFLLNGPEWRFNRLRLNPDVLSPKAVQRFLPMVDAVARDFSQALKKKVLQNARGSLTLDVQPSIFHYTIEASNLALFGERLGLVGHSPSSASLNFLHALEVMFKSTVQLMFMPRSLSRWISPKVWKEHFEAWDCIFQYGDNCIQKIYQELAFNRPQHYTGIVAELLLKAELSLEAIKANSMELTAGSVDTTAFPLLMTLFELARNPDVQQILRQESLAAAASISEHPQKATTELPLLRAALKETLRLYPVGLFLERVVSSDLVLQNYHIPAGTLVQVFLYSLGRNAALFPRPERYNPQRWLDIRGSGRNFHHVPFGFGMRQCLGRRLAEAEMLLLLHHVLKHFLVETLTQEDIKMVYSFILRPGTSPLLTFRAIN
human CYP11B1, sequence (P15538 25-503): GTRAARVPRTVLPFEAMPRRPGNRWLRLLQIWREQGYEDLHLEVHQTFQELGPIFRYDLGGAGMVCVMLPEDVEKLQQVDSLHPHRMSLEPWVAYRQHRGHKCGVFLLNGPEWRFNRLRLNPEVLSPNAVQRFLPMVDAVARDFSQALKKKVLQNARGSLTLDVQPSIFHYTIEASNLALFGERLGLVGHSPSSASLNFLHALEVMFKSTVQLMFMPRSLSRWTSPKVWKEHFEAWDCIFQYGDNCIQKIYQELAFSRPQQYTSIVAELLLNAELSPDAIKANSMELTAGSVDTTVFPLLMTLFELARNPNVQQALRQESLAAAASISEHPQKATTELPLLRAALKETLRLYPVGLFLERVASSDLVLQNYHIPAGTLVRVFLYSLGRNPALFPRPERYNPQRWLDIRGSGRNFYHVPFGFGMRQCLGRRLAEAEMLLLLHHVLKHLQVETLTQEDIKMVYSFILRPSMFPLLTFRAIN

Regarding `CCc1c(-c2cncc(F)c2)nn2c1NC(=O)CC2` [Example 13, 3-ethyl-2-(5-fluoropyridin-3-yl)-6,7-dihydropyrazolo[1,5-a]pyrimidin-5(4H)-one], the IC50 on human CYP11B1 is 1.35 µM; against human CYP11B2, 0.0117 µM. On human CYP11B1, `N#Cc1c(-c2cncc(Cl)c2)nn2c1NC(=O)CC2` [Example 26, 2-(5-chloropyridin-3-yl)-5-oxo-4,5,6,7-tetrahydropyrazolo[1,5-a]pyrimidine-3-carbonitrile] had an IC50 of 1.07 µM. Besides, on human CYP11B2, the inhibition at 1 µM was determined as 51%. As to `Cc1cncc(-c2nn3c(c2C2CC2)NC(=O)CC3)c1` [Example 10, 3-cyclopropyl-2-(5-methylpyridin-3-yl)-6,7-dihydropyrazolo[1,5-a]pyrimidin-5(4H)-one], testing at 10 µM against human CYP11B1 gave an inhibition of 71%. The same compound yielded an IC50 on human CYP11B2 of 0.0132 µM. Regarding `Cc1c(-c2cncc(F)c2)nn2c1NC(=O)CC2` [Example 15, 2-(5-fluoropyridin-3-yl)-3-methyl-6,7-dihydropyrazolo [1,5-a]pyrimidin-5(4H)-one], the IC50 was determined as 3.63 µM on human CYP11B1 and 0.0309 µM against human CYP11B2.

Compound `O=C1CCn2nc(-c3cncc(F)c3)c(C3CC3)c2N1` [Example 19, 3-cyclopropyl-2-(5-fluoropyridin-3-yl)-6,7-dihydropyrazolo[1,5-a]pyrimidin-5(4H)-one] showed an inhibition at 10 µM against human CYP11B1 of 38%. The same compound registered an IC50 on human CYP11B2 of 0.102 µM. On to `CCc1c(-c2cncc(C)c2)nn2c1N(C)C(=O)CC2` [Example 9, 3-ethyl-4-methyl-2-(5-methylpyridin-3-yl)-6,7-dihydropyrazolo[1,5-a]pyrimidin-5(4H)-one], for which the IC50 against human CYP11B1 amounted to 2.34 µM; against human CYP11B2, 0.0078 µM. In the same order, the values of `Cc1c(-c2cncc(F)c2)nn2c1N(C)C(=O)CC2` [Example 12, 2-(5-fluoropyridin-3-yl)-3,4-dimethyl-6,7-dihydropyrazolo[1,5-a]pyrimidin-5(4H)-one] are 1.82 µM and 0.0191 µM. On the same counts, the results for `Cc1cncc(-c2nn3c(c2C)N(C)C(=O)CC3)c1` [Example 8, 3,4-dimethyl-2-(5-methylpyridin-3-yl)-6,7-dihydropyrazolo[1,5-a]pyrimidin-5(4H)-one] are 3.71 µM and 0.0098 µM. In the same order, the values of `Cc1cncc(-c2nn3c(c2C)NC(=O)CC3)c1` [Example 7, 3-methyl-2-(5-methylpyridin-3-yl)-6,7-dihydropyrazolo[1,5-a]pyrimidin-5(4H)-one] are 0.282 µM and 0.0022 µM. The compound `Cc1cncc(-c2nn3c(c2C#N)NC(=O)CC3)c1` [Example 25, 2-(5-methylpyridin-3-yl)-5-oxo-4,5,6,7-tetrahydropyrazolo[1,5-a]pyrimidine-3-carbonitrile] displayed an inhibition at 1 µM on human CYP11B2 of 61%.

What is called IC50 is the concentration that gives 50% inhibition. Higher therefore signals weaker potency. The term inhibition denotes the percentage by which the read-out fell short of the control. The low end stands for a response near the control, the high end for a response far below the control.
